# Values of other authors, collected in patent publication US20070298000A1, “High SPF transparent or translucent naturally derived, cytoprotective, UV radiation resistant compositions” (priority 2006, published 2007).
# Test system: cancer cells
# Conditions: not given
row,Compound,effect on growth of cancer cells / activity in cells
1,"Cc1ccc(C=C2C(=O)C3(C)CCC2C3(C)C)cc1 (stereo not drawn) [4-methyl-benzylidene camphor, 3-(4-methylbenxylidene) camphor]",made cancer cells grow more rapidly
2,COc1ccc(C(=O)c2ccccc2)c(O)c1 [benzophenone-s],made cancer cells grow more rapidly
3,CC1CC(OC(=O)c2ccccc2O)CC(C)(C)C1 (stereo not drawn) [homosalate],made cancer cells grow more rapidly
4,CCCCC(CC)COC(=O)c1ccc(N(C)C)cc1 (stereo not drawn) [octyl-dimethyl-PABA],made cancer cells grow more rapidly

# Test system: uterine wet weight, cell height, cell proliferation
# Conditions: cell proliferation assays
row,Compound,estrogenicity
1,"Cc1ccc(C=C2C(=O)C3(C)CCC2C3(C)C)cc1 (stereo not drawn) [4-methyl-benzylidene camphor, 3-(4-methylbenxylidene) camphor]",highly estrogenic
2,COc1ccc(C(=O)c2ccccc2)c(O)c1 [benzophenone-s],highly estrogenic
